Measured values taken from article PMC9758846, “Dinuclear and mononuclear metal(II) polypyridyl complexes against drug-sensitive and drug-resistant Plasmodium falciparum and their mode of action” (Malaria Journal, 2022).

Legend:
[1] = Solution stability by molar conductivity and visible absorptivity; type: physicochemical; conditions: 24, 48 and 72 h; room temperature
Description: Series of 10 mM stock solutions were prepared by dissolving the compounds in their respective solvents: phen and 4,4′-bipy in 95% ethanol; Cu(NO3)2·3H2O, Zn(NO3)2·6H2O, (1) and (2) in double distilled water; (3) and (4) in DMSO. All the stock solutions were further diluted with double distilled water to obtain 10 mL of 30 µM, 1 mM and 5 mM for their respective studies, viz. 30 µM for ultraviolet spectral studies, 1 mM for conductivity measurement and 5 mM for visible spectral studies. For the water-DMSO solutions of both complexes (3) and (4), the 30 µM, 1 mM and 5 mM solutions have […], 10% DMSO and 50% DMSO respectively. The absorbance at λmax and conductance were of the aqueous solutions were measured at 0, 24, 48 and 72 h. The molar absorptivity and molar conductivity of the metal(II) complex solutions and their precursors were then calculated.

[2] = biological target: Pf5202 20S proteasome caspase-like (C-L) site (Plasmodium falciparum, UniProt Q8I0U7); assay: 20S proteasome inhibition assay using parasite lysate; type: biochemical; conditions: Suc-LLE-AMC, 30 min
Description: (§1) To harvest P. falciparum parasites, intraerythrocytic Pf3D7 and Pf5202 were collected in trophozoite and early schizont stages. Red blood cells were lysed in 0.15% (w/v) saponin lysis buffer for 10 min at 37 °C. After lysis, the parasite pellet was washed once with PBS buffer by centrifuging at 1600 rpm for 5 min. Saponin lysis buffer was added once again to remove all the red blood cells for 10 min at 37 °C, followed by washing with PBS twice and immediately used or kept at − 80 °C. To prepare parasite lysates for proteasome purification, parasite pellet was resuspended with 100 µl of pre-cooled Pierce™ RIPA buffer. A mild protein extraction method was used to prepare parasite extracts. The resuspended parasites were passed 20 times through a needle with a diameter of 0.4 mm in a syringe on ice to lyse the parasite. After 15 min centrifugation at 13,000 xg at 4 °C, the supernatant was removed. Protein concentration was determined by the Bradford assay. The activities of 3 proteolytic sites were determined by fluorescence assay using fluorogenic peptide substrates (Suc-LLVY-AMC for chymotrypsin-like, Boc-LRR-AMC for trypsin-like and Suc-LLE-AMC for caspase-like) Proteasome activities were determined by monitoring the substrate hydrolysis for 30 min at 37 °C with 340 nm excitation and 465 nm emission wavelength. Activity of each proteolytic site were calculated, and the IC50 values were determined from the non-linear regression analysis. VR23 proteasome inhibitor was used as positive control.

[3] = biological target: Pf3D7 20S proteasome chymotrypsin-like (CT-L) site (Plasmodium falciparum, UniProt Q8IJT1); assay: as above; type: biochemical; conditions: Suc-LLVY-AMC, 30 min
Description: as §1

[4] = biological target: Pf5202 20S proteasome trypsin-like (T-L) site (Plasmodium falciparum, UniProt Q8I6T3); assay: as above; type: biochemical; conditions: for IC50: parasite lysate, Boc-LRR-AMC, 30 min; for Factor by which T-L site of Pf5202 is inhibited better than that of Pf3D7: ratio of T-L IC50 values
Description: as §1

[5] = biological target: Pf5202 20S proteasome chymotrypsin-like (CT-L) site (Plasmodium falciparum, UniProt Q8IJT1); assay: as above; type: biochemical; conditions: Suc-LLVY-AMC, 30 min
Description: as §1

[6] = biological target: Pf3D7 20S proteasome trypsin-like (T-L) site (Plasmodium falciparum, UniProt Q8I6T3); assay: as above; type: biochemical; conditions: Boc-LRR-AMC, 30 min
Description: as §1

[7] = biological target: Pf3D7 20S proteasome caspase-like (C-L) site (Plasmodium falciparum, UniProt Q8I0U7); assay: as above; type: biochemical; conditions: Suc-LLE-AMC, 30 min
Description: as §1

Pf5202 20S proteasome trypsin-like (T-L) site, sequence (Q8I6T3 entry or part of it): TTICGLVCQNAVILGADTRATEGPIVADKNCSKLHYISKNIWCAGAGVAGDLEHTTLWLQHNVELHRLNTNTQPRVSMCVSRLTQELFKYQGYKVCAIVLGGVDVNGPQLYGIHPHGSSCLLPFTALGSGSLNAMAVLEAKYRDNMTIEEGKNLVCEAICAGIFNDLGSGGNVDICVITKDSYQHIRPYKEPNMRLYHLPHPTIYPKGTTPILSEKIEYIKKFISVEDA
Pf5202 20S proteasome chymotrypsin-like (CT-L) site, sequence (Q8IJT1 entry or part of it): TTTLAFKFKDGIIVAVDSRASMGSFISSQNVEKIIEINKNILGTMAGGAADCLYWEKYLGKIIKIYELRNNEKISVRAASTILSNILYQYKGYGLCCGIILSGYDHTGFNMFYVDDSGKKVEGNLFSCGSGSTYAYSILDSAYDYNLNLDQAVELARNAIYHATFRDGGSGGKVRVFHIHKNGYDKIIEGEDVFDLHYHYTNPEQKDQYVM
Pf3D7 20S proteasome chymotrypsin-like (CT-L) site, sequence (Q8IJT1 entry or part of it): as above
Pf3D7 20S proteasome trypsin-like (T-L) site, sequence (Q8I6T3 entry or part of it): as the sequence (Q8I6T3 entry or part of it) above
Pf3D7 20S proteasome caspase-like (C-L) site, sequence (Q8I6T3 entry or part of it): as above
Pf3D7 20S proteasome caspase-like (C-L) site, sequence (Q8I0U7 entry or part of it): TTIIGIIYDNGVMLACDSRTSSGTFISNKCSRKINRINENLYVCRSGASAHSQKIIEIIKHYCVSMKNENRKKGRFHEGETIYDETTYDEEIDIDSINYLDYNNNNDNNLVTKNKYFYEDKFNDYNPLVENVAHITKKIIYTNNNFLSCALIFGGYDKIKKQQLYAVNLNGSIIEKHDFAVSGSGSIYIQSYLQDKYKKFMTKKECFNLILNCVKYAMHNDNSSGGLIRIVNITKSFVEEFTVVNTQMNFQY
Pf5202 20S proteasome caspase-like (C-L) site, sequence (Q8I0U7 entry or part of it): as above
Pf5202 20S proteasome caspase-like (C-L) site, sequence (Q8I6T3 entry or part of it, further chain): as the sequence (Q8I6T3 entry or part of it) above

Compound | Stability of aqueous solution (molar conductivity; for (1) also visible molar absorptivity) [1] | IC50 [2] | IC50 [3] | IC50 [4] | Factor by which T-L site of Pf5202 is inhibited better than that of Pf3D7 [4] | IC50 [5] | IC50 [6] | IC50 [7]
O.O=[N+]([O-])[O-].O=[N+]([O-])[O-].[Cu+2].c1cnc2c(c1)ccc1cccnc12.c1cnc2c(c1)ccc1cccnc12 [Complex 1, [Cu(phen)2](NO3)2·H2O] | remains practically unchanged | > 25 µM | > 25 µM | 1.62 ± 0.3 µM | about 1.5 × | > 25 µM | 2.39 ± 0.13 µM | > 25 µM
[Cu(phen)(NO3)(H2O)-4,4′-bipy-Cu(phen)(NO3)(H2O)](NO3)2 [Complex 3] | – | > 25 µM | > 25 µM | 1.72 ± 0.13 µM | about 1.5 × | > 25 µM | 2.64 ± 0.35 µM | > 25 µM
